Results as given in patent publication US20250197425A1, “2,6,9-TRISUBSTITUTED PURINES” (ASTRAZENECA AB, priority 2022, published 2025).
≈ marks a conversion by molar mass, not a printed value.

Tests used:
OVCAR3 cells [1] = experiment: Cell proliferation CyQUANT assay, OVCAR3; assay type: cell-based; conditions: Homo sapiens, OVCAR-3, 168 h; CyQUANT cell counts, 7 days
Experimental: (§1) An imaging-based assay was used to investigate changes in cell number in OVCAR3 cells (CCNE1-amplified ovarian cancer cell line) and SKOV3 cells (non-amplified ovarian cancer cell line) treated with test compounds.
(§2) Cells were plated in 384 well plates (Perkin-Elmer 6057300) in RPMI-1640/10% FBS/1× L-Glu at 500 cells per well in 30 μL and incubated with test compound at 37° C. and 5% CO2 for 7 days. Cells were then stained using the CyQuant Direct Cell Proliferation Assay Kit (Thermo Cat #C7026) in accordance with the kit protocol. The stained cells were imaged using an Operetta high content imager to generate cell counts and IC50 values were calculated relative to DMSO controls.

CDK1:CCNB1 = CDK1:CCNB1 (Homo sapiens (Human), UniProt P06493); experiment: NanoBRET assay in MCF-7 cells, CDK1; assay type: cell-based; conditions: NanoBRET, transfected MCF-7 cells, 2 hours; n = 1 or average; read-out: CDK1 IC50
CDK1:CCNB1, sequence (P06493 whole entry): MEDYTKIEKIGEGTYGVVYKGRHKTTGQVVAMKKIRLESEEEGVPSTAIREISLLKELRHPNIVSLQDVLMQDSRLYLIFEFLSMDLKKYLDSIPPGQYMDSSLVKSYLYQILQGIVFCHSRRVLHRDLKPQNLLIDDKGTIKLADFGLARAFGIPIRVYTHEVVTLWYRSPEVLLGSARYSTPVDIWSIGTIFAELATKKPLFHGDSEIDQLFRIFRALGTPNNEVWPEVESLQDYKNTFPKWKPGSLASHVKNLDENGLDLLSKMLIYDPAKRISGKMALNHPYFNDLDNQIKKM
CDK1:CCNB1, sequence (P14635 whole entry partner): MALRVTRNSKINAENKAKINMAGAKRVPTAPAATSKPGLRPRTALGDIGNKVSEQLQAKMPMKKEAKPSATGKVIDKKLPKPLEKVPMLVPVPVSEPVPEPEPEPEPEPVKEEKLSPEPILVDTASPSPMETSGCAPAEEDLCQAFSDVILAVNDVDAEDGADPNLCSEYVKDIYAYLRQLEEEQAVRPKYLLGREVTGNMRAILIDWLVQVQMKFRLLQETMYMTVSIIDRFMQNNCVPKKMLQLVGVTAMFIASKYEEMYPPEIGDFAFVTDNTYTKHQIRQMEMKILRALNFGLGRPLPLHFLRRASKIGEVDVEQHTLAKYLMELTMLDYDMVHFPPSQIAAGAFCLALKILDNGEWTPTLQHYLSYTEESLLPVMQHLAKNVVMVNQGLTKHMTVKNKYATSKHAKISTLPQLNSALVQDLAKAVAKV
How it was run: (§3)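 Intracellular target engagement was measured by NanoBRET ratio (460 nm/610 nm) in live MCF-7 cells transiently carrying CDK4:CCND1 (Tracer K-7, 100 μM stock) or CDK1:CCNB1 (Tracer K-9, 400 μM stock).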

CDK4:CCND1 = CDK4:CCND1 (Homo sapiens (Human), UniProt P11802); experiment: NanoBRET assay in MCF-7 cells, CDK4; assay type: cell-based; conditions: NanoBRET, transfected MCF-7 cells, 2 hours; n = 1 or average; read-out: CDK4 IC50
CDK4:CCND1, sequence (P11802 whole entry): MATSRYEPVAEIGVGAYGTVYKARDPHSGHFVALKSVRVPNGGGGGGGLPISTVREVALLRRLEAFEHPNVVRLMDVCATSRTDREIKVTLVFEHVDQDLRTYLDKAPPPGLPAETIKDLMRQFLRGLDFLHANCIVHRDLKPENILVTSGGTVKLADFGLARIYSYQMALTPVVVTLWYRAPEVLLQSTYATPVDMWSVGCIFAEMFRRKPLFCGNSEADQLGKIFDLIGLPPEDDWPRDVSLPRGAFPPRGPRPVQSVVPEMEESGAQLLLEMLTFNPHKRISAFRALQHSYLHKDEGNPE
CDK4:CCND1, sequence (P24385 whole entry partner): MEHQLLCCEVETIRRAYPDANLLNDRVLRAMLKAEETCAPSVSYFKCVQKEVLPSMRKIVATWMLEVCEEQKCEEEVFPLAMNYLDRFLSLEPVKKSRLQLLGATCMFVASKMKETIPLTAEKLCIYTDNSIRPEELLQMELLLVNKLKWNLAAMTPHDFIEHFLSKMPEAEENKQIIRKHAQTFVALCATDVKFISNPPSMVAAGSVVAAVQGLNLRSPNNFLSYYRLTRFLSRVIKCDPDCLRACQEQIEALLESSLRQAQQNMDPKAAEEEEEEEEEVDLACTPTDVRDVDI
How it was run: as §3

CDK2:CCNE1 = CDK2:CCNE1 (Homo sapiens (Human), UniProt P24941); experiment: NanoBRET assay in MCF-7 cells, CDK2; assay type: cell-based; conditions: transfected MCF-7 cells, 2 hours, n = 1 or average
How it was run: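 In live MCF-7 cells, compound added followed by NanoBRET TE Tracer K-9 (stock 200 μM) for CDK2, 2 h at 37° C, 5% CO2.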

SKOV3 cells = experiment: Cell proliferation CyQUANT assay, SKOV3; assay type: cell-based; conditions: Homo sapiens, SK-OV-3, 168 h; CyQUANT cell counts, 7 days
Experimental: as §1, §2

OVCAR3 cells [2] = experiment: Cellular proliferation EdU assay, OVCAR3; assay type: cell-based, human; conditions: Homo sapiens, OVCAR-3, 48 h, EdU assay, two days; read-out: OVCAR3 IC50
How it was run: (§4)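 MCF-7 (800 cells/well) and OVCAR3 (1200 cells/well) in RPMI with 10% FBS exposed to compounds for two days at 37 °C.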

[3] = test system: POLR2A Ser2 phosphorylation (CDK9); experiment: POLR2A Ser2 phosphorylation imaging assay in MCF-7 cells; assay type: cell-based; conditions: Homo sapiens, MCF7, 2 h, MCF-7 cells, 2 hours; read-out: POLR2A Ser2 phosphorylation IC50
How it was run: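 MCF-7 cells were fixed, permeabilised and immunostained for POLR2A phospho-Ser2, then imaged by high-content microscopy. Levels were normalised to controls and IC50 values derived.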

[4] = test system: NPM phosphorylation (Thr199, CDK2-cyclin E complex); experiment: NPM phosphorylation imaging assay in MCF-7 cells; assay type: cell-based; conditions: Homo sapiens, 4N DNA cells
How it was run: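 MCF-7 cells were fixed, permeabilised and immunostained, then imaged for phospho-NPM (Thr199), a CDK2-cyclin E site. Analysis was gated on 4N-DNA cells by Hoechst staining. Signals were normalised to controls and fitted for IC50.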

MCF-7 cells = experiment: Cellular proliferation EdU assay, MCF-7; assay type: cell-based; conditions: Homo sapiens, MCF7, 48 h, EdU assay, two days; read-out: MCF-7 IC50
How it was run: as §4

[5] = target: 379 non-CDK kinase (or non-CDK kinase-complex) targets; experiment: Kinase profiling (SelectScreen, ThermoFisher); assay type: biochemical; conditions: compared with Compound 6
Description: Test compounds were profiled against a broad panel of kinases at ThermoFisher Scientific using the SelectScreen Kinase Profiling Services. Each kinase assay used one of the following assay technology protocols: • 1) Z-LYTE™ Screening Protocol and Assay Conditions (Revised 23 Jan. 2018 version) available at http://assets.thermofisher.com/TFS-Assets/BID/Methods-&-Protocols/20180123_SSBK_Customer_Protocol_and_Assay_Conditions.pdf; • 2) Adapta™ Screening Protocol and Assay Conditions (Revised 23 Jan. 2018 version) available at http://assets.thermofisher.com/TFS-Assets/BID/Methods-&-Protocols/20180123_SSBK_Adapta_Customer_Protocol_and_Assay_Conditions.pdf; or • 3) LanthaScreen™ Eu Kinase Binding Assay Screening Protocol and Assay Conditions (Revised 23 Jan. 2018 version) available at http://assets.thermofisher.com/TFS-Assets/BID/Methods-&-Protocols/20180123_SSBK_LanthaScreen_Binding_Customer_Protocol_and_Assay_Co nditions.pdf.

[6] = CLint assessment in human liver microsomes (HLM); assay type: in vitro ADME; conditions: 1 μM
How it was run: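 Microsomes preincubated 8 min with NADPH, then compound added and incubated 30 min at 37° C. Remaining compound measured by LC-MS/MS. t1/2 and CLint calculated, with CLint scaled to incubation volume per mg microsomal protein.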

[7] = Aqueous thermodynamic solubility, shake-flask; assay type: physicochemical; conditions: aqueous phosphate buffer, 25 °C, pH 7.4, aqueous buffer, thermodynamic from solid, phosphate buffer 0.1 M, pH 7.4, 24 hours
How it was run: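 After 24 h stirring at 25° C. in pH 7.4 phosphate buffer (0.1 M), solid-free supernatant from two centrifugations was quantified by UPLC/MS/MS after dilution in water. Compound was added as dried material after DMSO removal.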

Structure (SMILES) | IC50 (OVCAR3 cells [1]) [nM] | IC50 (CDK1:CCNB1) [nM] | IC50 (CDK4:CCND1) [nM] | IC50 (CDK2:CCNE1) [nM] | IC50 (SKOV3 cells) [nM] | IC50 (OVCAR3 cells [2]) [nM] | IC50 [3] [nM] | IC50 ([4]; MCF7, 2 h) [nM] | IC50 (MCF-7 cells) [nM] | HLM CLint [6] [µL/min/mg] | solubility at 24 h [7] [µM] | kinase inhibition profile [5] | IC50 ([4]; MCF7, 2 hours) [nM]
CCn1cnc2c(N[C@H]3CCN(S(C)(=O)=O)C3)nc(N[C@@H](CO)C(C)C)nc21 [Example 28, (R)-2-((9-ethyl-6-(((S)-1-(methylsulfonyl)pyrrolidin-3-yl)amino)-9H-purin-2-yl)amino)-3-methylbutan-1-ol] | – | – | – | – | – | 186 | > 30000 | – | 699 | – | – | broadly similar kinase inhibition profiles to Compound 6 | –
CCn1cnc2c(N[C@H]3CCN(S(=O)(=O)CCOC)C3)nc(N[C@@H](CO)C(C)C)nc21 [Example 42, (R)-2-((9-ethyl-6-(((S)-1-((2-methoxyethyl)sulfonyl)pyrrolidin-3-yl)-amino)-9H-purin-2-yl)amino)-3-methylbutan-1-ol] | – | 875 | 4500 | 27 | – | 428 | > 30000 | 310 | 925 | 196 | 167 (≈ 76.1 µg/mL) | – | –
CC[C@H](Nc1nc(N[C@H]2CCN(S(=O)(=O)NC)C2)c2ncn(CC)c2n1)[C@@H](C)O [Example 44, (S)-3-((9-ethyl-2-(((2R,3S)-2-hydroxypentan-3-yl)amino)-9H-purin-6-yl)-amino)-N-methylpyrrolidine-1-sulfonamide] | 133 | – | – | – | 9150 | 242 | > 29100 | – | 592 | – | – | broadly similar kinase inhibition profiles to Compound 6 | –
CC[C@H](Nc1nc(N[C@H]2CCN(S(=O)(=O)NC)C2)c2ncn(CC)c2n1)C(C)(C)O [Example 46, (S)-3-((9-ethyl-2-(((S)-2-hydroxy-2-methylpentan-3-yl)amino)-9H-purin-6-yl)amino)-N-methylpyrrolidine-1-sulfonamide] | – | 8370 | 23700 | 192 | – | 1370 | > 30000 | – | 3170 | 76.6 | > 1000 | – | 1170
CC[C@@H](CO)Nc1nc(N[C@H]2CCN(S(=O)(=O)NC)C2)c2ncn(CC)c2n1 [Example 48, (S)-3-((9-ethyl-2-(((S)-1-hydroxybutan-2-yl)amino)-9H-purin-6-yl)-amino)-N-methylpyrrolidine-1-sulfonamide] | – | 5550 | > 23800 | 123 | – | 2350 | > 30000 | 1300 | 3330 | 13.3 | > 1000 | – | –
CCn1cnc2c(N[C@H]3CCN(S(=O)(=O)NC)C3)nc(N[C@@H]3c4ccccc4C[C@@H]3O)nc21 [Example 51, (S)-3-((9-ethyl-2-(((1R,2S)-2-hydroxy-2,3-dihydro-1H-inden-1-yl)amino)-9H-purin-6-yl)amino)-N-methylpyrrolidine-1-sulfonamide] | – | 532 | 1900 | 32 | – | 324 | 7400 | 157 | 536 | 212 | 35 (≈ 16.5 µg/mL) | – | –
CCNS(=O)(=O)N1CC[C@H](Nc2cc(N[C@@H](CC)[C@@H](C)O)nc3c2ncn3CC)C1 [Example 60, (S)—N-ethyl-3-((3-ethyl-5-(((2R,3S)-2-hydroxypentan-3-yl)amino)-3H-imidazo[4,5-b]pyridin-7-yl)amino)pyrrolidine-1-sulfonamide] | – | 426 | 2500 | 14 | – | 89 | 6100 | 64 | 637 | 65.6 | 51.3 (≈ 22.6 µg/mL) | – | –

Now from value to compound, other results behind:

IC50 (OVCAR3 cells [1]) [nM] | IC50 (CDK1:CCNB1) [nM] | IC50 (CDK4:CCND1) [nM] | IC50 (CDK2:CCNE1) [nM] | IC50 (SKOV3 cells) [nM] | IC50 (OVCAR3 cells [2]) [nM] | IC50 [3] [nM] | IC50 ([4]; MCF7, 2 h) [nM] | IC50 (MCF-7 cells) [nM] | HLM CLint [6] [µL/min/mg] | solubility at 24 h [7] [µM] | Structure (SMILES) | kinase inhibition profile [5] | IC50 ([4]; MCF7, 2 hours) [nM]
34 | 115 | 800 | 5 | 514 | 53 | 1700 | 17 | – | – | – | O=S(=O)(c1ncc[nH]1)N1C[C@@H](F)[C@H](Nc2nc(N[C@@H](CO)C3CC3)nc3c2ncn3C(F)F)C1 (relative stereo) [Example 61, (R)-2-((6-(((3R*,4R*)-1-((1H-imidazol-2-yl)sulfonyl)-4-fluoropyrrolidin-3-yl)amino)-9-(difluoromethyl)-9H-purin-2-yl)amino)-2-cyclopropylethan-1-ol] | – | –
– | – | – | – | – | 288 | > 30000 | – | 658 | – | – | CCn1cnc2c(N[C@H]3CCN(S(C)(=O)=O)C3)nc(N[C@@H](CO)C3CC3)nc21 [Example 39, (R)-2-cyclopropyl-2-((9-ethyl-6-(((S)-1-(methylsulfonyl)pyrrolidin-3-yl)amino)-9H-purin-2-yl)amino)ethanol] | broadly similar kinase inhibition profiles to Compound 6 | –
– | 587 | 4300 | 24 | – | 6720 | > 30000 | 253 | 2710 | >300 | 1.79 (≈ 0.858 µg/mL) | CCn1cnc2c(N[C@H]3CCN(S(=O)(=O)CC(F)(F)F)C3)nc(N[C@@H](CO)C(C)C)nc21 [Example 40, (R)-2-((9-ethyl-6-(((S)-1-(2,2,2-trifluoroethylsulfonyl)pyrrolidin-3-yl)amino)-9H-purin-2-yl)amino)-3-methylbutan-1-ol] | – | –
– | 663 | 7700 | 19 | – | 327 | > 30000 | 182 | 746 | 177 | 39.2 (≈ 17.2 µg/mL) | CCn1cnc2c(N[C@H]3CCN(S(=O)(=O)C4CC4)C3)nc(N[C@@H](CO)C(C)C)nc21 [Example 41, (R)-2-((6-(((S)-1-(cyclopropylsulfonyl)pyrrolidin-3-yl)amino)-9-ethyl-9H-purin-2-yl)amino)-3-methylbutan-1-ol] | – | –
– | 557 | 5200 | 11 | – | 291 | > 30000 | 150 | 328 | 148 | 97.2 (≈ 41.7 µg/mL) | CCn1cnc2c(N[C@H]3CCN(S(=O)(=O)CF)C3)nc(N[C@@H](CO)C(C)C)nc21 [Example 43, (R)-2-((9-ethyl-6-(((S)-1-(fluoromethylsulfonyl)pyrrolidin-3-yl)-amino)-9H-purin-2-yl)amino)-3-methylbutan-1-ol] | – | –
